What all share (assay type): cell-based
One series concerns pLai RLuc reporter virus. Briefly: HIV MT-4 serum shift antiviral reporter assay. The note with it: Human immunodeficiency virus 1, MT4, 72 h. The method, then: Example 25: HIV MT-4 Serum Shift Antiviral Reporter Assay
To quantify the amount of protein binding to human serum, compounds were serially diluted (1:3) in DMSO and acoustically transferred onto 384-well assay plates via a Labcyte ECHO robot. Each plate contained up to 8 test compounds, including negative and positive controls, (DMSO, 5 μM AZT respectively). Assay plates were prepared in duplicate, and tested in either CCM (cell culture media) or HS/CCM (human serum/cell culture media). MT-4 cells were first pre-infected with pLai RLuc reporter virus for 2 h at 37° C., then further diluted in either CCM (RPMI media, 10% FBS, 1% P/S) or HS/CCM (RPMI media, 10% FBS, 50% HS, 1% P/S), and subsequently added to each plate using a Biotek Micro Flow dispenser. After a 72-h incubation in a humidified and temperature controlled incubator (37° C.), Renilla Glo (Promega) was added to all assay plates and chemiluminescence read using an Envision plate-reader. EC50 values were defined as the compound concentration that causes a 50% decrease in luminescence signal, and were calculated using a sigmoidal dose-response model to generate curve fits. To determine the amount of protein binding, EC50 fold shifts (or EC50 shifts) were calculated by dividing EC50 (HS/CCM)/EC50 (CCM).
In general terms: In a reporter assay the amount or activity of a reporter protein is the signal.

Series [1] in a line: Cytotoxicity assay in MT-4 cells. The conditions noted are these: human; uninfected MT-4 cells, 5 days incubation, Cell Titer Glo. As for the experimental part:
Cytotoxicity Assay in MT-4 Cells Assays were performed as above except uninfected MT-4 cells were added to each well containing test compound. In addition, 10 μM puromycin was added to the last column of each assay plate to assess a base level of cytotoxicity.
Background: Cellular ATP, detected with luciferase, serves as a proxy for viable cell number.

The next series concerns HIV-1 (IIIB). The series can be described thus: Antiviral assay in MT-4 cells. The note with it: Human immunodeficiency virus 1, MT4, 120 h; replication of HIV-1 (IIIB) in MT-4 cells, 5 days incubation, Cell Titer Glo. As for the experimental part: Example 24: HIV MT-4 Antiviral and Cytotoxicity Assay
Antiviral Assay in MT-4 Cells
Compounds were tested in a high-throughput 384-well assay format for their ability to inhibit the replication of HIV-1 (IIIB) in MT-4 cells. Compounds were serially diluted (1:3) in DMSO on 384-well polypropylene plates and further diluted 200-fold into complete RPMI media (10% FBS, 1% P/S) using the Biotek Micro Flow and Labcyte ECHO acoustic dispenser. Each plate contained up to 8 test compounds, with negative (No Drug Control) and 5 μM AZT positive controls. MT-4 cells were pre-infected with 10 μL of either RPMI (mock-infected) or a fresh 1:250 dilution of HIV-1 IIIB concentrated virus stock. Infected and uninfected MT-4 cells were further diluted in complete RPMI media and added to each plate using a Micro Flow dispenser. After 5 days incubation in a humidified and temperature controlled incubator (37° C.), Cell Titer Glo (Promega) was added to the assay plates and chemiluminescence read using an Envision plate-reader. EC50 values were defined as the compound concentration that causes a 50% decrease in luminescence signal, and were calculated using a sigmoidal dose-response model to generate curve fits.

Where two headings read alike, the source gives them in different places.

One may read the CC50 as the concentration that lowers cell viability or growth by half. A low value points to harm at low concentration.

Regarding `O=C(NCc1c(F)cc(F)cc1F)c1c2n3c(c(O)c1=O)C(=O)N1CCCC[C@@]3(C[C@H]2O)C1` (single isomer, unassigned) [Compound 9-2], the EC50 in the series on pLai RLuc reporter virus (read-out: Antiviral Serum Shift RLuc 50% HS) came to 0.0341 µM; in the series on pLai RLuc reporter virus (read-out: Antiviral Serum Shift RLuc CCM), 0.000347 µM; with HIV-1 (IIIB), 0.00123 µM. In series [1], this compound gave a CC50 at 5 days of 5.17 µM.

(Values after US12122776B2, “Tetracyclic compounds and uses thereof” (Gilead Sciences, Inc., priority 2020, dated 2024).)
